The text below walks through data of ChEMBL document CHEMBL2424570, “New synthetic approach to coumarino[4,3-b]pyridine systems and potential cytotoxic evaluation” (Med Chem Res, 2013).

The subject of the first assay is Ehrlich. The experiment in a line: Ratio of 5-fluorouracil IC50 to compound IC50 for mouse EAC cells.
Conditions: not given
In kind it is functional.
On to `O=c1oc2ccccc2c2nc(/C=C/c3ccccc3)cc(-c3ccccc3)c12`, for which the “Ratio IC50” value was 3.

As to `Nc1c(C(c2ccc(Cl)cc2)c2c(N)c3ccccc3oc2=O)c(=O)oc2ccccc12`, the “Ratio IC50” value is listed as 3.

For the molecule `O=c1oc2ccccc2c2nc3c(c(-c4ccccc4)c12)CCC/C3=C\c1ccccc1`, the “Ratio IC50” value was 3.

In the case of `O=C1c2ccccc2-c2nc3c(c(-c4ccccc4)c21)c(=O)oc1ccccc13`, the “Ratio IC50” value is 3.

Take `O=c1oc2ccccc2c2nc(-c3ccccc3)cc(-c3ccc([N+](=O)[O-])cc3)c12`: the “Ratio IC50” value is recorded as 3.

The test system of another assay is Ehrlich. The experiment in a line: Ratio of 5-fluorouracil IC25 to compound IC25 for mouse EAC cells. In kind it is functional.
Conditions: not given
Consider `O=c1oc2ccccc2c2nc(/C=C/c3ccccc3)cc(-c3ccccc3)c12`, for which the Ratio turned out to be 3.

Take `Nc1c(C(c2ccc(Cl)cc2)c2c(N)c3ccccc3oc2=O)c(=O)oc2ccccc12`: the Ratio turned out to be 3.

In the case of `O=c1oc2ccccc2c2nc3c(c(-c4ccccc4)c12)CCC/C3=C\c1ccccc1`, the Ratio is on record as 3.

As to `O=C1c2ccccc2-c2nc3c(c(-c4ccccc4)c21)c(=O)oc1ccccc13`, the Ratio turned out to be 3.

For `O=c1oc2ccccc2c2nc(-c3ccccc3)cc(-c3ccc([N+](=O)[O-])cc3)c12`, the Ratio worked out at 3.

Tested on in a further assay: not listed separately
Briefly: Antitumor activity against mouse EAC cells by trypan blue exclusion assay. In kind it is functional, cell-based, Ehrlich.
Conditions: not given
As to `O=c1oc2ccccc2c2nc(/C=C/c3ccccc3)cc(-c3ccccc3)c12`, the IC100 was determined as 0.27 µM.

On to `Nc1c(C(c2ccc(Cl)cc2)c2c(N)c3ccccc3oc2=O)c(=O)oc2ccccc12`, for which the IC100 was found to be 0.25 µM.

Turning to `O=c1oc2ccccc2c2nc3c(c(-c4ccccc4)c12)CCC/C3=C\c1ccccc1`, the IC100 was determined as 0.24 µM.

On to `O=C1c2ccccc2-c2nc3c(c(-c4ccccc4)c21)c(=O)oc1ccccc13`, for which the IC100 was determined as 0.27 µM.

For `O=c1oc2ccccc2c2nc(-c3ccccc3)cc(-c3ccc([N+](=O)[O-])cc3)c12`, the IC100 was determined as 0.25 µM.

As to `O=c1[nH]cc(F)c(=O)[nH]1` [FLUOROURACIL], the IC100 was 0.77 µM.

The same assay, now with this note: Mus musculus, Ehrlich.
By IC25 is commonly meant the point of the concentration-response curve where the effect stands at 25%. The IC50 is the concentration that inhibits the measured activity by half. Low values mean higher potency, high ones lower potency. `O=c1oc2ccccc2c2nc(/C=C/c3ccccc3)cc(-c3ccccc3)c12`: the IC25 was found to be 0.06 µM and the IC50 came out at 0.13 µM.

On to `Nc1c(C(c2ccc(Cl)cc2)c2c(N)c3ccccc3oc2=O)c(=O)oc2ccccc12`, for which the IC25 came out at 0.06 µM and 0.12 µM corresponded to half-maximal inhibition (IC50).

Take `O=c1oc2ccccc2c2nc3c(c(-c4ccccc4)c12)CCC/C3=C\c1ccccc1`: the 25% effect level (IC25) was put at 0.06 µM and the IC50 was 0.12 µM.

`O=C1c2ccccc2-c2nc3c(c(-c4ccccc4)c21)c(=O)oc1ccccc13` came in with an IC25 of 0.06 µM and an IC50 of 0.13 µM.

As for `O=c1oc2ccccc2c2nc(-c3ccccc3)cc(-c3ccc([N+](=O)[O-])cc3)c12`, it took 0.06 µM to reach the 25% level (IC25) and inhibition was half-maximal at 0.12 µM (IC50).

With `O=c1[nH]cc(F)c(=O)[nH]1` [FLUOROURACIL], it took 0.19 µM to reach the 25% level (IC25) and the IC50 amounted to 0.38 µM.

In another assay the test system is Ehrlich. Briefly: Ratio of 5-fluorouracil IC100 to compound IC100 for mouse EAC cells. In kind it is functional.
Conditions: not given
On to `O=c1oc2ccccc2c2nc(/C=C/c3ccccc3)cc(-c3ccccc3)c12`, for which the Ratio is 3.

Turning to `Nc1c(C(c2ccc(Cl)cc2)c2c(N)c3ccccc3oc2=O)c(=O)oc2ccccc12`, the Ratio worked out at 3.

For the molecule `O=c1oc2ccccc2c2nc3c(c(-c4ccccc4)c12)CCC/C3=C\c1ccccc1`, the Ratio amounted to 3.

Consider `O=C1c2ccccc2-c2nc3c(c(-c4ccccc4)c21)c(=O)oc1ccccc13`, for which the Ratio is 3.

As to `O=c1oc2ccccc2c2nc(-c3ccccc3)cc(-c3ccc([N+](=O)[O-])cc3)c12`, the Ratio was determined as 3.
